Experimental data reported in patent US11453647B2, “Benzimidazole derivatives as adenosine receptor antagonists” (Merck Patent GmbH, priority 2017, dated 2022).

Assays:
human A1 receptor = target: T1, human A1 receptor (Homo sapiens, UniProt P30542); test: functional cAMP (HTRF) assay, recombinant CHO cells expressing human A1 receptor, forskolin, agonist CPA; assay type: cell-based
T1 construct: expressed in transfected cells; host or cells: CHO
T1 sequence (P30542 1-326): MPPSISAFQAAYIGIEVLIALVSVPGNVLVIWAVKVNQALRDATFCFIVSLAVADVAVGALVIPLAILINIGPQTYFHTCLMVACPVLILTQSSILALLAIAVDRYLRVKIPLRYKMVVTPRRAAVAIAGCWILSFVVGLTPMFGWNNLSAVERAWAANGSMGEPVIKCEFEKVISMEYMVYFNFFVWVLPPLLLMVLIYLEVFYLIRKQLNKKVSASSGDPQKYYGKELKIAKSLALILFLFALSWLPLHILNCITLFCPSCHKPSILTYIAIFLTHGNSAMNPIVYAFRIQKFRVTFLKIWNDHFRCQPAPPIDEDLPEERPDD
How it was run: (§1)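 Normalized HTRF cAMP signals (inhibitor and DMSO controls as references) were curve-fitted; assays used forskolin-stimulated CHO cells with A1 or A3, agonist CPA or IB-MECA respectively, 30 min compound incubation.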

human A3 receptor = target: T2, human A3 receptor (Homo sapiens, UniProt P0DMS8); test: functional cAMP (HTRF) assay, recombinant CHO cells expressing human A3 receptor, forskolin, agonist IB-MECA; assay type: cell-based
T2 construct: expressed in transfected cells; host or cells: CHO
T2 sequence (P0DMS8 1-318): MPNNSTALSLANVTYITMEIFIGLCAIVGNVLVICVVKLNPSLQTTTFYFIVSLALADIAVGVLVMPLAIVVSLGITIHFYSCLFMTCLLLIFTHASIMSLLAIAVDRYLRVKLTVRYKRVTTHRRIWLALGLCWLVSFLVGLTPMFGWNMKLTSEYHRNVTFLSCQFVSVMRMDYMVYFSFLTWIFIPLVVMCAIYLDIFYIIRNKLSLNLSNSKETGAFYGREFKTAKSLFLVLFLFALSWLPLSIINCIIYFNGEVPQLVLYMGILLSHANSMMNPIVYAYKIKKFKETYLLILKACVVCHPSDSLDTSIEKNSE
How it was run: as §1

mouse Pan T cells [1] = test: mouse Pan T cell IL-2 rescue from A2A agonist CGS-21680 (ELISA, 24 h); assay type: cell-based; details: for IC50: Mus musculus, T-cell
Excerpt: (§2) Adenosine (Ado) in tumor microenvironment can inhibit T cell activity by signaling through A2A receptors and suppress cytokine secretion by T cells. […] Potential A2A antagonists or A2A/A2B dual antagonists can rescue T cells from this inhibition. Herein, we describe the in vitro system we established using Pan T cells from mouse spleens to screen potential A2A antagonists or A2A/A2B dual antagonists for their activity. The method described involves the use of CD3/CD28 pre-coated beads to stimulate Pan T cells purified from mouse splenocytes, combined with the addition of A2A agonist along with potential A2A or A2A/A2B dual antagonists to evaluate potentiation of T cell cytokine production.
(§3) Briefly, mouse Pan T cells are purified from spleens of BALB/c mice using Pan T cell isolation kit Mouse II (MACS Miltenyi biotech Cat # Order no. 130-095-130) according to manufacturer's protocol. The purified T cells are seeded in Nunc™ 96-Well Polystyrene Round Bottom Microwell Plates in RPMI medium with 10% heat inactivated fetal bovine serum. The cells are rested at 37° C. for 1 h before activating with CD3/CD28 pre-coated beads (Dynabeads™ Mouse T-Activator CD3/CD28; Cat #11456D). After 30 min the cells are treated with varying doses of test antagonist(s). […] After 24 h incubation IL-2 levels in the supernatants and after 48 h incubation IFN-γ levels in the supernatants are measured by ELISAs according to manufacturer's protocol (R&D systems Cat # DY402 (IL-2); DY485 (IFN-γ)). Once the concentrations are calculated, the difference of cytokine concentration of DMSO control and agonist alone control is calculated (called A) and the percentage of rescue by each concentration of antagonist is calculated by using Microsoft Excel. These percentages of cytokine rescue in a dose dependent manner of antagonist is plotted in GraphPad Prism software and IC50 is calculated.

mouse Pan T cells [2] = test: mouse Pan T cell IFN-γ rescue from A2A agonist CGS-21680 (ELISA, 48 h); assay type: cell-based; details: for IC50: Mus musculus, T-cell
Excerpt: as §2, §3

human A2A receptor = target: T3, human A2A receptor (Homo sapiens, UniProt P29274); test: functional cAMP (HTRF) assay, recombinant HEK293 cells expressing human A2A receptor, agonist NECA; assay type: cell-based
T3 construct: expressed in transfected cells; host or cells: HEK293

A2B receptors [3] = target: T4, A2B receptors (Homo sapiens, UniProt P29275); test: functional cAMP (HTRF) assay, recombinant HEK293 cells expressing human A2B receptor, agonist NECA; assay type: cell-based; design: expressed in transfected cells; host or cells: HEK293
T4 sequence (P29275 1-332): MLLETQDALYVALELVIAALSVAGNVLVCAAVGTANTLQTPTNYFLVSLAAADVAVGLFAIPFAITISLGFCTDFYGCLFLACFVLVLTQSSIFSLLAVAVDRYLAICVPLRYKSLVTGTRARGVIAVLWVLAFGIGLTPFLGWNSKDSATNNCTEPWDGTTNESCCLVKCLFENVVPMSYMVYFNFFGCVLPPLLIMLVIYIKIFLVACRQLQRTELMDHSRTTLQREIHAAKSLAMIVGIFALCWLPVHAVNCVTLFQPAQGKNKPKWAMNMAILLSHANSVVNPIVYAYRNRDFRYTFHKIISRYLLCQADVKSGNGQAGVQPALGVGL

[4] = pharmacokinetic properties in mouse after single intravenous and oral administration; assay type: in vivo; details: PK data in mouse; for Feces iv: @0.2 (dose, unit not given); for clearance / half-life / Cmax / Vd: female, plasma, 0.2 mg/kg; for Cmax: dose-normalized to 1 mg/kg; for Vd: read-out: Vss
Excerpt: The objective of the study was to obtain information on the pharmacokinetic properties of the compounds of the present invention in female Wistar rats/mice following single intravenous and oral administration.
Female Wistar rats/mice (n=6) received either a single intravenous (bolus) injection or an oral administration (by gavage) of the tested compound.
The concentrations of the compounds in plasma, feces were quantified using an UPLC method with tandem mass spectrometric detection (LC-MS/MS) previously developed at the ‘Institute of Drug Metabolism and Pharmacokinetics’. The LC-MS/MS system consisted of a Waters Acquity UPLC coupled to an AB Sciex mass spectrometer API 5500 Q-trap. […] The detection of the compounds was performed using multiple reaction monitoring in the positive ionization mode. Plasma samples were spiked with internal standard (20 μl) and the analyte was extracted from the matrix using tertiary-butyl methyl ether (tBME). The organic phase was evaporated to dryness under a stream of nitrogen. The residue was dissolved in acetonitrile/0.1% formic acid for LC-MS/MS analysis. Feces samples were homogenized with 4-times their volume of an ethanol/water mixture (4:1, v/v). Aliquots of the aqueous-ethanolic extracts were spiked with internal standard, diluted with acetonitrile/water (1:1, v/v) and directly injected into the LC-MS/MS system.
Pharmacokinetic parameters Cmax and tmax were taken from the observed data. […] AUC values were calculated by non-compartmental analysis using the linear up/log down method. Numerical data for mean plasma concentrations and derived pharmacokinetic parameters were rounded to 3 significant digits for presentation.

A2B receptors [5] = target: T4, A2B receptors; details: antagonists; cited from earlier work
[6] = IC50 of cytokine rescue, CGS-21680 1 μM, CD3/CD28 beads

T3 sequence (P29274 whole entry): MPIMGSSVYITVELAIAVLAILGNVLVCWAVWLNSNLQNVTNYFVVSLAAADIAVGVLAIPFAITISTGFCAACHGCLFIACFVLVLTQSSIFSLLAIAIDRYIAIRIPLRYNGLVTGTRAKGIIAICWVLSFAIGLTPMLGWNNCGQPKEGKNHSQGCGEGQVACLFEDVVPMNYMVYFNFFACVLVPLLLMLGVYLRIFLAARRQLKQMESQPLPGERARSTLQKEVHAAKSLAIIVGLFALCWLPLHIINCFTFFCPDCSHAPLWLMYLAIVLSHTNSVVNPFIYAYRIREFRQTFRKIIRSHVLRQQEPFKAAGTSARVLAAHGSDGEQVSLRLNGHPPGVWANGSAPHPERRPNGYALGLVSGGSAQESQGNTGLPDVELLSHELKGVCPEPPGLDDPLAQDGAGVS

| SMILES | IC50 (human A1 receptor) [nM] | IC50 (human A3 receptor) [nM] | IC50 (mouse Pan T cells [1]) [nM] | IC50 (mouse Pan T cells [2]) [nM] | IC50 (human A2A receptor) [nM] | IC50 (A2B receptors [3]) [nM] | Feces iv [4] | clearance [4] [mL/min/kg] | half-life [4] [min] | Cmax [4] [ng/mL] | Vd [4] [L/kg] | affinities on A2B receptors (A2B receptors [5]) | Mouse T-Cell IL-2 (mouse Pan T cells [1]; [6]) | Mouse IFN-γ (mouse Pan T cells [2]; [6]) |
| --- | --- | --- | --- | --- | --- | --- | --- | --- | --- | --- | --- | --- | --- | --- |
| COc1ccc(-c2cnn(C)c2)c2nc(NC(=O)c3ccc(Cn4ccnc4)cc3)[nH]c12 [compound 71, 4-[(1H-imidazol-1-yl)methyl]-N-[7-methoxy-4-(1-methyl-1H-pyrazol-4-yl)-1H-1,3-benzodiazol-2-yl]benzamide] | > 1000 | < 1000 | 40 | 40 | < 10 | < 100 |  |  |  |  |  |  |  |  |
| COc1ccc(-c2cnn(C)c2)c2nc(NC(=O)c3ccc(OC(F)(F)F)cc3)[nH]c12 [compound 94, N-[7-methoxy-4-(1-methyl-1H-pyrazol-4-yl)-1H-1,3-benzodiazol-2-yl]-4-(trifluoromethoxy)benzamide] | > 1000 | < 1000 |  | 1000 | < 10 | < 1000 |  |  |  |  |  |  |  |  |
| COc1ccc(-c2cnn(C)c2)c2nc(NC(=O)N3CCC4(CCCOC4)C3)[nH]c12 (stereo not drawn) [compound 67, N-[7-methoxy-4-(1-methyl-1H-pyrazol-4-yl)-1H-1,3-benzodiazol-2-yl]-7-oxa-2-azaspiro[4.5]decane-2-carboxamide] |  |  |  | 800 |  |  |  |  |  |  |  |  |  |  |
| COc1ccc(-c2cnn(C)c2)c2nc(NC(=O)c3ccc(C(=O)N(C)C)cc3)[nH]c12 [compound 93, N4-[7-methoxy-4-(1-methyl-1H-pyrazol-4-yl)-1H-1,3-benzodiazol-2-yl]-N1,N1-dimethylbenzene-1,4-dicarboxamide] | > 1000 | > 1000 | 111 | 350 | < 10 | < 100 | 42@0.2% | 6.77 | 46.1 | 3160 | 0.357 |  |  |  |
| O=c1[nH]c(=O)c2nc3ccccc3nc2[nH]1 [alloxazine, 2,4-dioxobenzopteridine] |  |  |  |  |  |  |  |  |  |  |  | mid to high nM range |  |  |
| CCCn1c(=O)[nH]c(=O)c2[nH]cnc21 [enprofylline, 3-n-propylxanthine] |  |  |  |  |  |  |  |  |  |  |  | mid to high nM range |  |  |
| CCNCc1ccc(C(=O)Nc2nc3c(-c4ccccc4)ccc(OC)c3[nH]2)cc1 [compound 11, 4-Ethylaminomethyl-N-(7-methoxy-4-phenyl-1H-benzoimidazol-2-yl)-benzamide] | > 1000 | > 1000 | 44 | 75 | < 10 | < 100 |  |  |  |  |  |  |  |  |
| COc1ccc(N2CCOCC2)c2sc(NC(=O)N3CCC(C)(O)CC3)nc12 [Tozadenant, reference compound] |  |  |  |  |  |  | 23@0.2% |  |  |  |  |  | NA (<50% rescue) | NA (<50% rescue) |
| COc1ccc(-c2cnn(C)c2)c2nc(NC(=O)N3CC[C@@]4(CCCOC4)C3)[nH]c12 [compound 114, (5S)-N-[7-methoxy-4-(1-methyl-1H-pyrazol-4-yl)-1H-1,3-benzodiazol-2-yl]-7-oxa-2-azaspiro[4.5]decane-2-carboxamide] | > 1000 | > 1000 | 900 | 900 | < 10 | > 1000 | 9@0.2% | 9.43 | 66.6 | 1440 | 0.842 |  |  |  |
| COc1ccc(-c2ccccc2)c2nc(NC(=O)c3ccc(Cn4ccnc4)cc3)[nH]c12 [compound 15, 4-Imidazol-1-ylmethyl-N-(7-methoxy-4-phenyl-1H-benzoimidazol-2-yl)-benzamide] | < 1000 | < 100 | 1110 |  | < 10 | < 10 |  |  |  |  |  |  |  |  |
| COc1ccc(-c2cnn(C)c2)c2nc(NC(=O)N3CCC(C)(CO)CC3)[nH]c12 [compound 35, 4-Hydroxymethyl-4-methyl-piperidine-1-carboxylic acid [7-methoxy-4-(1-methyl-1H-pyrazol-4-yl)-1H-benzoimidazol-2-yl]-amide] |  |  | 120 | 220 |  |  |  |  |  |  |  |  |  |  |
| COc1ccc(-c2cnn(C)c2)c2nc(NC(=O)c3ccc(CN4CCCC4=O)cc3)[nH]c12 [compound 100, N-[7-methoxy-4-(1-methyl-1H-pyrazol-4-yl)-1H-1,3-benzodiazol-2-yl]-4-[(2-oxopyrrolidin-1-yl)methyl]benzamide] | > 1000 | > 1000 | 100 | 80 | < 10 | < 1000 | 12.5@0.2% | 22.5 | 32.9 | 888 | 1.05 |  |  |  |
| CCCn1c(=O)c2[nH]c(-c3ccc(S(=O)(=O)O)cc3)nc2n(CCC)c1=O [DPSPX, 1,3-dipropyl-8-sulphophenylxanthine] |  |  |  |  |  |  |  |  |  |  |  | mid to high nM range |  |  |
| C#CCC1(O)CCN(C(=O)Nc2nc3c(-c4cnn(C)c4)ccc(OC)c3[nH]2)CC1 [compound 92, 4-hydroxy-N-[7-methoxy-4-(1-methyl-1H-pyrazol-4-yl)-1H-1,3-benzodiazol-2-yl]-4-(prop-2-yn-1-yl)piperidine-1-carboxamide] | > 1000 | > 1000 | 1000 | 500 | < 10 | < 1000 | 26@0.2% | 31.7 | 33.4 | 892 | 1.17 |  |  |  |
